pIC50: −log10 of the molar value. Like-named read-outs stand apart in the source and are kept apart here.
Tested on: Myc
Test: Myc inhibition assay: Myc expression per cell by anti-Myc immunofluorescence, high-content imaging
Format: cell-based, human (patient-derived medulloblastoma xenograft cells)
Settings: medulloblastoma PDX cells, 4 h
Summary of the method: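 Cells from Myc-driven medulloblastoma patient-derived orthotopic xenografts, propagated only in NSG mouse cerebellum, were dissociated and plated in serum-free medium. After overnight recovery, compounds were applied for 4 hours; cells were then fixed, stained for Myc and DAPI, and per-cell Myc quantified by high-content imaging to derive IC50.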

[1] = Table 1, read-out: IC50 (Myc inhibition)
[2] = Table 2, read-out: MYC Inhibition IC50

Structure (SMILES)	pIC50 [1]	pIC50 [2]
COc1cccc(-c2ccnc(Nc3ccccc3)n2)n1 [Compound 236, 4-(6-methoxypyridin-2-yl)-N-phenylpyrimidin-2-amine]	4.00 to 5.00	4.00 to 5.00
CN(c1cccc(F)c1)c1nccc(-c2ccnc(O)c2)n1 [Compound 237, 4-(2-((3-fluorophenyl)(methyl)amino)pyrimidin-4-yl)pyridin-2-ol]	4.00 to 5.00	4.00 to 5.00
Oc1ccc(-c2ccnc(Nc3ccccc3)n2)cn1 [Compound 238, 5-(2-(phenylamino)pyrimidin-4-yl)pyridin-2-ol]	5.00 to 6.00	5.00 to 6.00
COc1ccc(-c2ccnc(Nc3ccccc3)n2)cn1 [Compound 239, 4-(6-methoxypyridin-3-yl)-N-phenylpyrimidin-2-amine]	4.00 to 5.00	4.00 to 5.00
COc1cc(-c2ncnc(Nc3ccccc3)n2)ccn1 [Compound 240, 4-(2-methoxypyridin-4-yl)-N-phenyl-1,3,5-triazin-2-amine]	5.00 to 6.00	5.00 to 6.00
Oc1cc(-c2ccnc(Nc3cccc(C(F)(F)F)c3)n2)ccn1 [Compound 241, 4-(2-((3-(trifluoromethyl)phenyl)amino)pyrimidin-4-yl)pyridin-2-ol]	6.00 to 6.70	6.00 to 6.70
Oc1cc(-c2ccnc(Nc3cccc(F)c3)n2)ccn1 [Compound 242, 4-(2-((3-fluorophenyl)amino)pyrimidin-4-yl)pyridin-2-ol]	6.00 to 6.70	6.00 to 6.70
COc1cc(-c2ccnc(Nc3cccc(F)c3)n2)ccn1 [Compound 243, N-(3-fluorophenyl)-4-(2-methoxypyridin-4-yl)pyrimidin-2-amine]	5.00 to 6.00	5.00 to 6.00
Oc1cccc(-c2ccnc(Nc3ccccc3)n2)c1 [Compound 244, 3-(2-(phenylamino)pyrimidin-4-yl)phenol]	5.00 to 6.00	5.00 to 6.00
COc1cccc(-c2cccc(Nc3ccccc3)n2)c1 [Compound 245, 6-(3-Methoxyphenyl)-N-phenylpyridin-2-amine]	4.00 to 5.00	4.00 to 5.00
COc1cccc(-c2ccnc(Nc3ccccc3)c2)c1 [Compound 246, 4-(3-Methoxyphenyl)-N-phenylpyridin-2-amine]	4.00 to 5.00	4.00 to 5.00
COc1cccc(-c2ccnc(N(C)c3ccccc3)n2)c1 [Compound 247, 4-(3-methoxyphenyl)-N-methyl-N-phenylpyrimidin-2-amine]	5.00 to 6.00	5.00 to 6.00
COc1cccc(-c2ccnc(Nc3ccccc3OC)n2)c1 [Compound 248, N-(2-methoxyphenyl)-4-(3-methoxyphenyl)pyrimidin-2-amine]	4.00 to 5.00	4.00 to 5.00
COc1cccc(-c2ccnc(Nc3cccc(Cl)c3)n2)c1 [Compound 249, N-(3-chlorophenyl)-4-(3-methoxyphenyl)pyrimidin-2-amine]	5.00 to 6.00	5.00 to 6.00
COc1cccc(Nc2nccc(-c3cccc(OC)c3)n2)c1 [Compound 250, N,4-bis(3-methoxyphenyl)pyrimidin-2-amine]	5.00 to 6.00	5.00 to 6.00
Oc1cc(-c2ccnc(Nc3ccccc3)n2)ccn1 [Compound 251, 4-(2-(phenylamino)pyrimidin-4-yl)pyridin-2-ol]	5.00 to 6.00	5.00 to 6.00
COc1cc(-c2ccnc(Nc3ccccc3)n2)ccn1 [Compound 252, 4-(2-methoxypyridin-4-yl)-N-phenylpyrimidin-2-amine]	4.00 to 5.00	4.00 to 5.00
COc1cccc(-c2ccnc(Nc3ccccc3)n2)c1 [Compound 253, 4-(3-methoxyphenyl)-N-phenylpyrimidin-2-amine]	4.00 to 5.00	4.00 to 5.00
O=C(Nc1cccc(Nc2nccc(-c3ccc4[nH]cnc4c3)n2)c1)c1ccco1 [Compound 254, N-(3-((4-(1H-benzo[d]imidazol-5-yl)pyrimidin-2-yl)amino)phenyl)furan-2-carboxamide]	> 6.70	> 6.70
CS(=O)(=O)Nc1cccc(Nc2nccc(-c3ccc4[nH]cnc4c3)n2)c1 [Compound 255, N-(3-((4-(1H-benzo[d]imidazol-5-yl)pyrimidin-2-yl)amino)phenyl)methanesulfonamide]	5.00 to 6.00	5.00 to 6.00
CC(=O)c1cccc(Nc2nccc(-c3ccc4[nH]cnc4c3)n2)c1 [Compound 256, 1-(3-((4-(1H-benzo[d]imidazol-5-yl)pyrimidin-2-yl)amino)phenyl)ethan-1-one]	> 6.70	> 6.70

Structure (SMILES)	pIC50 [1]	pIC50 [2]
CC(C)C(=O)Nc1cccc(Nc2nccc(-c3ccc4[nH]cnc4c3)n2)c1 [Compound 257, N-(3-((4-(1H-benzo[d]imidazol-5-yl)pyrimidin-2-yl)amino)phenyl)isobutyramide]	6.00 to 6.70	6.00 to 6.70
Fc1cc(Nc2nccc(-c3ccc4[nH]cnc4c3)n2)cc(F)c1F [Compound 258, 4-(1H-benzo[d]imidazol-5-yl)-N-(3,4,5-trifluorophenyl)pyrimidin-2-amine]	> 6.70	> 6.70
c1cc(Nc2nccc(-c3ccc4[nH]cnc4c3)n2)cc(-n2ccnn2)c1 [Compound 259, N-(3-(1H-1,2,3-triazol-1-yl)phenyl)-4-(1H-benzo[d]imidazol-5-yl)pyrimidin-2-amine]	> 6.70	> 6.70
O=S(=O)(c1cccc(Nc2nccc(-c3ccc4[nH]cnc4c3)n2)c1)C(F)(F)F [Compound 260, 4-(1H-benzo[d]imidazol-5-yl)-N-(3-((trifluoromethyl)sulfonyl)phenyl)pyrimidin-2-amine]	> 6.70	> 6.70
c1cc(Nc2nccc(-c3ccc4[nH]cnc4c3)n2)cc(-c2ccn[nH]2)c1 [Compound 261, N-(3-(1H-pyrazol-5-yl)phenyl)-4-(1H-benzo[d]imidazol-5-yl)pyrimidin-2-amine]	> 6.70	> 6.70
CN(c1cccc(Nc2nccc(-c3ccc4[nH]cnc4c3)n2)c1)S(=O)(=O)c1ccccc1 [Compound 262, N-(3-((4-(1H-benzo[d]imidazol-5-yl)pyrimidin-2-yl)amino)phenyl)-N-methylbenzenesulfonamide]	5.00 to 6.00	5.00 to 6.00
O=C(Nc1ccccc1)c1cccc(Nc2nccc(-c3ccc4[nH]cnc4c3)n2)c1 [Compound 263, 3-((4-(1H-benzo[d]imidazol-5-yl)pyrimidin-2-yl)amino)-N-phenylbenzamide]	> 6.70	> 6.70
c1cc(Nc2nccc(-c3ccc4[nH]cnc4c3)n2)cc(-c2cnco2)c1 [Compound 264, 4-(1H-benzo[d]imidazol-5-yl)-N-(3-(oxazol-5-yl)phenyl)pyrimidin-2-amine]	> 6.70	> 6.70
Cc1ccc(Nc2nccc(-c3ccc4[nH]cnc4c3)n2)cc1C(F)(F)F [Compound 265, 4-(1H-benzo[d]imidazol-5-yl)-N-(4-methyl-3-(trifluoromethyl)phenyl)pyrimidin-2-amine]	> 6.70	> 6.70
FC(F)(F)c1ccc(Nc2nccc(-c3ccc4[nH]cnc4c3)n2)cc1 [Compound 266, 4-(1H-benzo[d]imidazol-5-yl)-N-(4-(trifluoromethyl)phenyl)pyrimidin-2-amine]	5.00 to 6.00	5.00 to 6.00
c1cc(Nc2nccc(-c3ccc4[nH]cnc4c3)n2)cc(-c2nnn[nH]2)c1 [Compound 267, N-(3-(1H-tetrazol-5-yl)phenyl)-4-(1H-benzo[d]imidazol-5-yl)pyrimidin-2-amine]	> 6.70	> 6.70
c1cc(-c2ccc3[nH]cnc3c2)nc(Nc2ccc3cn[nH]c3c2)n1 [Compound 268, N-(4-(1H-benzo[d]imidazol-5-yl)pyrimidin-2-yl)-1H-indazol-6-amine]	6.00 to 6.70	6.00 to 6.70
c1cc(-c2ccc3[nH]cnc3c2)nc(Nc2ccc3sccc3c2)n1 [Compound 269, N-(benzo[b]thiophen-5-yl)-4-(1H-benzo[d]imidazol-5-yl)pyrimidin-2-amine]	6.00 to 6.70	6.00 to 6.70
Fc1cccc(Nc2nccc(-c3ccn4nccc4n3)n2)c1 [Compound 270, N-(3-fluorophenyl)-4-(pyrazolo[1,5-a]pyrimidin-5-yl)pyrimidin-2-amine]	5.00 to 6.00	5.00 to 6.00
Fc1cccc(Nc2nccc(-c3ccc4ocnc4c3)n2)c1 [Compound 271, 4-(benzo[d]oxazol-5-yl)-N-(3-fluorophenyl)pyrimidin-2-amine]	5.00 to 6.00	5.00 to 6.00
CCOC(=O)CCc1cccc(Nc2nccc(-c3ccc4nc[nH]c4c3)n2)c1 [Compound 272, ethyl 3-(3-((4-(1H-benzo[d]imidazol-6-yl)pyrimidin-2-yl)amino)phenyl)propanoate]	6.00 to 6.70	6.00 to 6.70
Fc1cccc(Nc2nccc(-c3cnc4nccn4c3)n2)c1 [Compound 273, N-(3-fluorophenyl)-4-(imidazo[1,2-a]pyrimidin-6-yl)pyrimidin-2-amine]	5.00 to 6.00	5.00 to 6.00
Cc1cc(Cl)cc(Nc2nccc(-c3ccc4nc[nH]c4c3)n2)c1 [Compound 274, 4-(1H-benzo[d]imidazol-6-yl)-N-(3-chloro-5-methylphenyl)pyrimidin-2-amine]	> 6.70	> 6.70
Nc1cccc(Nc2nccc(-c3ccc4nc[nH]c4c3)n2)c1 [Compound 275, N1-(4-(1H-benzo[d]imidazol-6-yl)pyrimidin-2-yl)benzene-1,3-diamine]	> 6.70	> 6.70
CC(C)(C)n1cc(Nc2nccc(-c3ccc4nc[nH]c4c3)n2)cn1 [Compound 276, 4-(1H-benzo[d]imidazol-6-yl)-N-(1-(tert-butyl)-1H-pyrazol-4-yl)pyrimidin-2-amine]	6.00 to 6.70	6.00 to 6.70
CC(C)n1cnc2ccc(-c3ccnc(Nc4cccc(F)c4)n3)cc21 [Compound 277A, N-(3-fluorophenyl)-4-(1-isopropyl-1H-benzo[d]imidazol-6-yl)pyrimidin-2-amine]	> 6.70	–
